The values below come from article PMC7594047, “Synthesis of a New Class of Spirooxindole–Benzo[b]Thiophene-Based Molecules as Acetylcholinesterase Inhibitors” (Molecules, 2020).

Read-outs that look alike come from different tables or passages of the source.

For orientation: IC50 means the concentration that gives 50% inhibition. By inhibition is commonly meant the change of the read-out against control, counted positive when it falls. A high value points to a strong effect.

One experiment deals with AChE. The following applies: cited from earlier work.
For experiment [1], the target named is T1, acetylcholinesterase enzyme from electric eel (Electrophorus electricus, UniProt O42275).
T1 construct: purchased Sigma-Aldrich CAS Number 9000-81-1 (catalogue number not given)
T1 sequence (O42275 24-633): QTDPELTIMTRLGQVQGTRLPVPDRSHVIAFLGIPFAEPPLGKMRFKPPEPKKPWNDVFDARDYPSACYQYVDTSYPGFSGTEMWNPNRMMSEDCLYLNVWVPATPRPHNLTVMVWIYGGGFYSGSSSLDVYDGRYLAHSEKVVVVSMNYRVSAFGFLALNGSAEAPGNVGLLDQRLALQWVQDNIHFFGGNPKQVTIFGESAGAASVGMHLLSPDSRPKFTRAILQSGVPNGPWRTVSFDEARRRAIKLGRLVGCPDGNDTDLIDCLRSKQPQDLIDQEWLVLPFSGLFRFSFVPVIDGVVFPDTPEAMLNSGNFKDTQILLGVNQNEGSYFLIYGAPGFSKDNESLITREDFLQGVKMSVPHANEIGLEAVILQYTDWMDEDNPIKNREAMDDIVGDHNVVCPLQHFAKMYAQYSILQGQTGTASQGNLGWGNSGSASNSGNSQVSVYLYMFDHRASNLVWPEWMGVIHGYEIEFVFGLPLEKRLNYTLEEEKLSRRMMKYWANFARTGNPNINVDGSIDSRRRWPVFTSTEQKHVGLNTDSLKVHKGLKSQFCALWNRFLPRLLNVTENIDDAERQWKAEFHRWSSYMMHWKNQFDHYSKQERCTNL
The experiment in a line: Acetylcholinesterase (AChE) inhibitory assay (DTNB/acetylthiocholine iodide, absorbance at 412 nm). It is filed as biochemical. The following applies: for inhibition at 1.56 µg/mL: Conc 1.56 ug/ml; for inhibition at 3.125 µg/mL: Conc 3.125 ug/ml; for inhibition at 6.25 µg/mL: Conc 6.25 ug/ml; for inhibition at 12.5 µg/mL: Conc 12.5 ug/ml; for inhibition at 25 µg/mL: Conc 25 ug/ml; for inhibition at 50 µg/mL: Conc 50 ug/ml. Here is the method: The in vitro cholinesterase inhibitory activity of the 14 synthesized spiro-oxindole derivatives (IIa–n) were evaluated. […] Galantamine was used as a positive control for comparison.
Acetylcholinesterase (AChE) inhibitory assay.
140 μL of 0.1 M sodium phosphate buffer of pH 8 was first added to a 96-wells microplate followed by 20 μL of test samples and 20 μL of 0.09 units/mL acetylcholinesterase enzyme from electric eel (Sigma-Aldrich, CAS Number 9000-81-1). After 15 min of incubation at 25 °C, 10 μL of 10 mM 5,5′-dithiobis-2-nitrobenzoic acid (DTNB, Sigma-Aldrich, CAS Number 69-78-3) was added into each well followed by 10 μL of 14 mM acetylthiocholine iodide (Sigma-Aldrich, CAS Number 1866-15-5). Thirty min after the initiation of enzymatic reaction, absorbance of the colored end-product was measured using StatFax-2100 microplate reader (Awareness Technology, Inc., USA) at 412 nm. Each test was conducted in triplicates. Test samples were prepared in DMSO at an initial concentration of 1 mg/mL (1000 ppm).
The concentration of DMSO in final reaction mixture was 1%.
The initial screening was carried out at 50 μg/mL of test samples in 1% DMSO. Absorbance of the test samples was corrected by subtracting the absorbance of their respective blank. Percentage enzyme inhibition is calculated using the following formula Percentage of inhibition = Absorbance of control - […]

The mark [2] stands for this setting: read-out: IC50 value against AChE.
Where [3] appears, read: supplement, six concentrations 1.56-50 μg/mL, read-out: IC50 (AchE inhibition) (converted).

`COc1ccc2c3c1O[C@H]1C[C@@H](O)C=C[C@@]31CCN(C)C2` [Galantamine]: the half-maximal inhibitory concentration (IC50) with AChE (positive control (STD), Table 1, read-out: AChE Inhibition IC50) was […].
On to `O=C(c1ccc(F)cc1)C1C(c2cc3ccccc3s2)C2CSCN2[C@@]12C(=O)Nc1ccc(Cl)cc12` (stereo partly drawn) [IIg, (3S)-7′-(Benzo[b]thiophen-2-yl)-5-chloro-6′-(4-fluorobenzoyl)-3′,6′,7′,7a’-tetrahydro-1′H-spiro[indoline-3,5′-pyrrolo[1,2-c]thiazol]-2-one], for which, in experiment [1], the inhibition at 1.56 µg/mL was 23.4%, at 3.125 µg/mL the inhibition was 30.3%, the inhibition at 6.25 µg/mL is 41.5% and the inhibition at 12.5 µg/mL was 51.8%. In addition, in experiment [1], at 25 µg/mL the inhibition was 59% and the inhibition at 50 µg/mL is 68.3%. Moreover, the half-maximal inhibitory concentration (IC50) in experiment [1] (setting [2]) is 23 µM. Besides, the IC50 in experiment [1] (setting [3]) was 23 µM.
In experiment [1], `O=C(c1ccc(F)cc1)C1C(c2cc3ccccc3s2)C2C3CCCCC3CN2[C@@]12C(=O)Nc1ccc(Cl)cc12` (stereo partly drawn) [IIh, (3S)-1′-(Benzo[b]thiophen-2-yl)-5-chloro-2′-(4-fluorobenzoyl)-1′,2′,5′,5a’,6′,7′,8′,9′,9a’,9b’-decahydrospiro[indoline-3,3′-pyrrolo[2,1-a]isoindol]-2-one] yielded an inhibition at 1.56 µg/mL of 0.46%, an inhibition at 3.125 µg/mL of 6.58%, an inhibition at 6.25 µg/mL of 10.7% and an inhibition at 12.5 µg/mL of 23.3%. Further, in experiment [1], the inhibition at 25 µg/mL was 27.4% and 50 µg/mL produced 43% inhibition. The IC50 in experiment [1] (Table 1, read-out: AChE Inhibition IC50) turned out to be 122 µM. Further, the IC50 in experiment [1] (setting [3]) is 122 µM.
In experiment [1], `O=C(c1ccc(C(F)(F)F)cc1)C1C(c2cc3ccccc3s2)C2CSCN2[C@@]12C(=O)Nc1ccc(Cl)cc12` (stereo partly drawn) [IIi, (3S)-7′-(Benzo[b]thiophen-2-yl)-5-chloro-6′-(4-(trifluoromethyl)benzoyl)-3′,6′,7′,7a’-tetrahydro-1′H-spiro[indoline-3,5′-pyrrolo[1,2-c]thiazol]-2-one] came in with an inhibition at 1.56 µg/mL of 1.23%, an inhibition at 3.125 µg/mL of 7.35%, an inhibition at 6.25 µg/mL of 12.7% and an inhibition at 12.5 µg/mL of 26.2%. In experiment [1], this compound had an inhibition at 25 µg/mL of 38.7% and an inhibition at 50 µg/mL of 52.4%. The concentration for half-maximal inhibition (IC50) in experiment [1] (setting [3]) was 72.4 µM.
For `O=C(c1ccc(C(F)(F)F)cc1)C1C(c2cc3ccccc3s2)C2CSCN2[C@@]12C(=O)Nc1ccccc12` (stereo partly drawn) [IIj, (3S)-7′-(Benzo[b]thiophen-2-yl)-6′-(4-(trifluoromethyl)benzoyl)-3′,6′,7′,7a’-tetrahydro-1′H-spiro[indoline-3,5′-pyrrolo[1,2-c]thiazol]-2-one], in experiment [1], the inhibition at 1.56 µg/mL was determined as 1.68%, 3.125 µg/mL produced 6.43% inhibition, 6.25 µg/mL produced 12.2% inhibition and the inhibition at 12.5 µg/mL amounted to 29.4%. In experiment [1], this compound yielded an inhibition at 25 µg/mL of 41% and an inhibition at 50 µg/mL of 50.7%. Besides, the 50% inhibitory concentration (IC50) in experiment [1] (setting [3]) was 76 µM.
In experiment [1], `O=C(c1ccc(C(F)(F)F)cc1)C1C(c2cc3ccccc3s2)C2C3CCCCC3CN2[C@@]12C(=O)Nc1ccc(Cl)cc12` (stereo partly drawn) [IIk, (3S)-1′-(Benzo[b]thiophen-2-yl)-5-chloro-2′-(4-(trifluoromethyl)benzoyl)-1′,2′,5′,5a’,6′,7′,8′,9′,9a’,9b’-decahydrospiro[indoline-3,3′-pyrrolo[2,1-a]isoindol]-2-one] returned an inhibition at 1.56 µg/mL of 9.95%, an inhibition at 3.125 µg/mL of 24.8%, an inhibition at 6.25 µg/mL of 32.8% and an inhibition at 12.5 µg/mL of 41.8%. In experiment [1], the inhibition at 25 µg/mL is 49.2% and the inhibition at 50 µg/mL is 57.3%. In addition, the IC50 in experiment [1] (setting [2]) came out at 41.5 µM. The IC50 in experiment [1] (setting [3]) is 41.5 µM.
On to `O=C(c1ccc(Br)cc1)C1C(c2cc3ccccc3s2)C2CSCN2[C@@]12C(=O)Nc1ccc(Cl)cc12` (stereo partly drawn) [IIl, (3S)-7′-(Benzo[b]thiophen-2-yl)-6′-(4-bromobenzoyl)-5-chloro-3′,6′,7′,7a’-tetrahydro-1′H-spiro[indoline-3,5′-pyrrolo[1,2-c]thiazol]-2-one], for which, in experiment [1], the inhibition at 1.56 µg/mL was determined as 11.6%, testing at 3.125 µg/mL gave an inhibition of 25.6%, the inhibition at 6.25 µg/mL amounted to 34.9% and the inhibition at 12.5 µg/mL came to 44.4%. For the same compound, in experiment [1], the inhibition at 25 µg/mL amounted to 56.5% and the inhibition at 50 µg/mL came to 64.9%. Besides, in experiment [1] (setting [2]), the half-inhibitory concentration (IC50) came out at 29.8 µM. Besides, the 50% inhibitory concentration (IC50) in experiment [1] (setting [3]) was 29.8 µM.
In the case of `O=C(c1ccc(Br)cc1)C1C(c2cc3ccccc3s2)C2CSCN2[C@@]12C(=O)Nc1ccccc12` (stereo partly drawn) [IIm, (3S)-7′-(Benzo[b]thiophen-2-yl)-6′-(4-bromobenzoyl)-3′,6′,7′,7a’-tetrahydro-1′H-spiro[indoline-3,5′-pyrrolo[1,2-c]thiazol]-2-one], the concentration for half-maximal inhibition (IC50) in experiment [1] (setting [2]) was 41.4 µM.
For the compound `O=C(c1ccc(Br)cc1)C1C(c2cc3ccccc3s2)C2C3CCCCC3CN2[C@@]12C(=O)Nc1ccc(Cl)cc12` (stereo partly drawn) [IIn, (3S)-1′-(Benzo[b]thiophen-2-yl)-2′-(4-bromobenzoyl)-5-chloro-1′,2′,5′,5a’,6′,7′,8′,9′,9a’,9b’-decahydrospiro[indoline-3,3′-pyrrolo[2,1-a]isoindol]-2-one], in experiment [1], the inhibition at 1.56 µg/mL turned out to be 15.6%, the inhibition at 3.125 µg/mL is 23.4%, the inhibition at 6.25 µg/mL was 32.5% and the inhibition at 12.5 µg/mL was determined as 41.8%. In addition, in experiment [1], the inhibition at 25 µg/mL was 50.1% and the inhibition at 50 µg/mL was 61%. Moreover, in experiment [1] (setting [2]), the 50% inhibitory concentration (IC50) was 36.8 µM. Further, the half-maximal inhibitory concentration (IC50) in experiment [1] (setting [3]) was 36.8 µM.
Consider `O=C1/C(=C/c2ccc(Cl)cc2Cl)CN(C(=O)C2CC3CCCN3C23C(=O)Nc2cc(Cl)ccc23)C/C1=C\c1ccc(Cl)cc1Cl` (centres unmarked) [compound A], for which, in the experiment on AChE (compound A), the “AChE inhibitory activity IC50” value is 2.37 ± 0.11 µg/mL. In addition, the IC50 in the experiment on AChE (compound A, read-out: AChE inhibitory activity IC50) was 3.33 µM.
`O=C1/C(=C/c2ccc(Cl)cc2)CN(C(=O)C2CC3CCCN3C23C(=O)Nc2ccccc23)C/C1=C\c1ccc(Cl)cc1` (centres unmarked) [compound B]: the “AChE inhibitory activity IC50” value in the experiment with AChE (compound B, Figure 1) is 2.28 ± 0.07 µg/mL.
